Reference: the supplement of paper PMC10307832

Columns and labels:
Test in all cases: relative viability (nuclei count vs DMSO), 5 days (fraction); higher = more cells survive
BI-2536 + Palbociclib = compound: CC[C@@H]1C(=O)N(C)c2cnc(Nc3ccc(C(=O)NC4CCN(C)CC4)cc3OC)nc2N1C1CCCC1 [BI-2536] + CC(=O)c1c(C)c2cnc(Nc3ccc(N4CCNCC4)cn3)nc2n(C2CCCC2)c1=O [Palbociclib] (partner 0.5 µM)
Summary of the method: (§1)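 Relative viability divides the nuclei count in treated wells by that in vehicle wells. Lung cancer cell lines were seeded in 1536-well plates, dosed by pin tool the next day, and fixed and stained after 5 days in one step with final 0.05% Triton X-100, 1% formaldehyde and 1 ug/ml Hoechst. Dosing was a single drug or a fixed anchor-drug dose plus five library-drug doses (not always all listed) in √10 steps, and values are medians of duplicate plates imaged at 4×.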

[1] = compound: CC1CC(=O)N(C2=CN=C(N=C2N1C3CCCC3)NC4=C(C=C(C=C4)C(=O)NC5CCN(CC5)C)OC)C [NPK76-II-72-1] + CC(C)C[C@H](NC(=O)[C@H](Cc1ccccc1)NC(=O)c1cnccn1)B(O)O [Bortezomib] (partner 0.002 µM)
Summary of the method: as §1

[2] = compound: CC1CC(=O)N(C2=CN=C(N=C2N1C3CCCC3)NC4=C(C=C(C=C4)C(=O)NC5CCN(CC5)C)OC)C [NPK76-II-72-1] + C[C@]1(O)C[C@@H](c2nc(-c3ccc4ccc(-c5ccccc5)nc4c3)c3c(N)nccn32)C1 [Linsitinib] (partner 1 µM)
Summary of the method: as §1

BI-2536 + Dasatinib = compound: CC[C@@H]1C(=O)N(C)c2cnc(Nc3ccc(C(=O)NC4CCN(C)CC4)cc3OC)nc2N1C1CCCC1 [BI-2536] + Cc1nc(Nc2ncc(C(=O)Nc3c(C)cccc3Cl)s2)cc(N2CCN(CCO)CC2)n1 [Dasatinib] (partner 0.075 µM)
Summary of the method: as §1

Cell Line | relative viability (BI-2536 + Palbociclib; first compound 0.01 µM) | relative viability (BI-2536 + Palbociclib; first compound 0.03162 µM) | relative viability (BI-2536 + Palbociclib; first compound 0.1 µM) | relative viability (BI-2536 + Palbociclib; first compound 0.3162 µM) | relative viability (BI-2536 + Palbociclib; first compound 1 µM) | relative viability ([1]; first compound 0.01 µM) | relative viability ([1]; first compound 0.03162 µM) | relative viability ([1]; first compound 0.1 µM) | relative viability ([1]; first compound 0.3162 µM) | relative viability ([1]; first compound 1 µM) | relative viability ([2]; first compound 0.03162 µM) | relative viability ([2]; first compound 0.1 µM) | relative viability ([2]; first compound 0.3162 µM) | relative viability ([2]; first compound 1 µM) | relative viability (BI-2536 + Dasatinib; first compound 0.01 µM) | relative viability (BI-2536 + Dasatinib; first compound 0.03162 µM) | relative viability (BI-2536 + Dasatinib; first compound 0.1 µM) | relative viability (BI-2536 + Dasatinib; first compound 0.3162 µM) | relative viability (BI-2536 + Dasatinib; first compound 1 µM) | relative viability ([2]; first compound 0.01 µM)
LCLC-97TM1 | 0.225 | 0.203 | 0.144 | 0.107 | 0.0769 | 0.638 | 0.727 | 0.561 | 0.606 | 0.703 | 0.16 | 0.167 | 0.192 | 0.156 | 0.943 | 0.837 | 0.725 | 0.155 | 0.12 | –
LCLC-103H | 0.473 | 0.508 | 0.421 | 0.371 | 0.294 | 1.03 | 1.02 | 0.994 | 0.984 | 1.09 | 1.16 | 1.02 | 1.03 | 1.01 | 0.405 | 0.467 | 0.413 | 0.147 | 0.089 | 1.04
LOU-NH91 | 0.477 | 0.51 | 0.472 | 0.331 | 0.317 | 0.488 | 0.483 | 0.463 | 0.432 | 0.35 | 0.932 | 0.984 | 0.681 | 1.04 | 0.599 | 0.539 | 0.52 | 0.289 | 0.256 | 0.941
LU99A | 0.37 | 0.445 | 0.318 | 0.152 | 0.147 | 1.17 | 1.28 | 1.23 | 0.952 | 1.3 | 0.522 | 0.584 | 0.479 | 0.518 | 0.47 | 0.593 | 0.178 | 0.188 | 0.159 | 0.57
LXF-289 | 0.612 | 0.583 | 0.587 | 0.116 | 0.116 | 1.02 | 1.06 | 0.955 | 1.04 | 1.02 | 0.977 | 0.921 | 0.925 | 1 | 0.274 | 0.235 | 0.0786 | 0.047 | 0.0368 | 0.931
NCI-H23 | 0.465 | 0.528 | 0.304 | 0.146 | 0.111 | 0.856 | 1.22 | – | 1.06 | 1.12 | 0.701 | – | 0.592 | 0.552 | 0.803 | 1.02 | 0.285 | 0.126 | 0.107 | 0.546
NCI-H322M | 0.503 | 0.436 | 0.462 | 0.447 | 0.395 | 1.17 | 1.3 | 1.24 | 1.39 | 1.36 | 1.1 | 0.805 | 0.961 | 0.976 | 0.286 | 0.248 | 0.259 | 0.361 | 0.288 | 0.853
